This is an account of results in PMC5866837, “Towards a generic physiologically based kinetic model to predict in vivo uterotrophic responses in rats by reverse dosimetry of in vitro estrogenicity data” (Archives of Toxicology, 2017).

A short description of data set [1]: Rapid equilibrium dialysis (RED), fraction unbound in in vitro assay medium. The class given is in vitro ADME. The conditions noted are these: bovine, assay medium with 5% FCS, RED 5 h at 37 °C, read-out: f ub (fraction unbound). How it is done:
The assay medium used in the ER-CALUX and the proliferation assay contains 5% FCS, so the RED assay was performed using the assay medium for these two assays and for rat serum. The f ub was determined using the protocol described by Waters et al. ([2008]). The RED device insert has two chambers, a plasma and a buffer chamber. […] After incubating for 5 h at 37 °C at 250 rpm on an orbital shaker, the system reaches equilibrium (van […] et al. [2011]). 25 μL of post-dialysis samples were collected from the plasma and buffer chambers in separate tubes. Simultaneously, 25 μL of corresponding buffer (PBS) was added to the sample taken from the plasma chamber and the same volume of corresponding rat serum or in vitro medium was added to the sample taken from the buffer chamber. Then, 300 μL cold precipitation buffer (90/10 ACN/water) was added to both samples to precipitate the proteins and release the compound. The samples were put on ice for 30 min and subsequently centrifuged for 15 min at 15,000×g (CT 15RE, Hitachi Koki Co., Ltd). Then, the supernatants were collected for UPLC analysis. By determining the compound concentration in each chamber, the fraction unbound can be calculated with the following equation: f ub = concentration in buffer chamber/concentration in plasma chamber (van […] et al. [2011]; Waters et al. [2008]). […]
A general note: In equilibrium dialysis only unbound substance equilibrates across the membrane.

Another data set deals with uterus weight in rats. The data set is described as follows: In vivo uterotrophic assay and BMD analysis (PROAST) of its data. Set-up: species or system rat. Conditions: for BMD (BMD10) / BMDL (BMDL10) / BMDU (BMDU10): PROAST exponential model, BMR 10%, absolute uterus weight; for BMDL (BMDL10) / BMDU (BMDU10): in mg/kg. How it is done:
To that end, a literature research was performed using the search terms uterotrophic assay, rats, oral administration.
Furthermore, benchmark dose (BMD) values derived from the predicted dose–response data were compared with BMD values derived from the dose–response data from the uterotrophic assay as reported in the literature. To that end, BMD modelling was applied on dose–response data using the exponential model for continuous data of the PROAST software from The National Institute for Public Health and the Environment of the Netherlands (RIVM) version 38.9 (Slob [2002]). The benchmark response (BMR) was defined as a 10% increase of response change compared to the control. The predicted dose level with an estimated 10% extra risk obtained is shown as BMD10. The lower and upper limits of the 95% confidence interval on the BMD10 are defined as BMDL10 and BMDU10. In PROAST, BMD values are only reported if the model fit of the data is accepted, so when the software provided BMD values, it was assumed that the data had been adequately modelled. […] For in vivo studies, the absolute uterus weight values were used as input for the response in the continuous model.

Data set [2] has as its system uterotrophic growth in rats. The data set is described as follows: PBK modelling-based reverse dosimetry of YES assay data and BMD analysis. Set-up: species or system rat. The text has this: For each in vitro concentration–response dataset from the three assays, the PBK modelling-based reverse dosimetry approach was used to predict the dose levels that are required to reach concentrations in blood that were applied in these assays. As it is assumed that the fraction unbound (f ub) of the parent compound induces the toxicity, the possible difference in the f ub in the in vitro assay medium and in rat serum was corrected prior to applying reverse dosimetry. The f ub of E2 and BPA were determined for in vitro assay media and rat serum as described below. PBK modelling-based reverse dosimetry. […] Consequently, for reverse dosimetry, the in vitro unbound concentration (C ub, in vitro) was set equal to the unbound C max in blood (C ub, in vivo) to determine the dose that is required to cause an in vivo estrogenic effect. The C ub, in vitro was estimated based on the equation: C ub, in vitro = C in vitro × f ub, in vitro, where C in vitro is the nominal concentration applied in the in vitro assay and f ub, in vitro is the fraction unbound of the chemical in the in vitro assay medium as determined using the RED assay. The C ub, in vivo was estimated based on the equation: C ub, in vivo = C in vivo × f ub, in vivo, where C in vivo is the nominal blood concentration in rat and fub, in vivo is the fub in rat serum. Assuming that for the prediction of in vivo toxicity, the C ub, in vitro is the same as C ub, in vivo, the nominal blood concentration in rat can be described by the following equation: C in vivo = C ub, in vivo/f ub, in vivo = C ub, in vitro/f ub, in vivo = (C in vitro × f ub, in vitro)/fub, in vivo. By calculating with the PBK model which dose is required to reach a C in vivo, an in vitro concentration can be translated into an in vivo dose. Performing this exercise for all the concentrations applied in the in vitro assays, the in vitro concentration–response curves were translated into predicted in vivo dose–response curves. […]

A further data set has as its system Caco-2. The conditions noted are these: cited from earlier work.
[3] abbreviates: in vivo data of Odum et al. 1997 (doses in mg/kg bw).
Where [4] appears, read: in vivo data of Kanno et al. 2003 (doses in mg/kg bw).
Setting [5] is: in vivo data of Tinwell and Ashby 2004 (doses in mg/kg bw).

Structures are written as SMILES.

Regarding `C[C@]12CC[C@@H]3c4ccc(O)cc4CC[C@H]3[C@@H]1CC[C@@H]2O` [E2, 17β-estradiol], the free fraction (fraction unbound) at 5 h, 5 µM in data set [1] was 0.628 ± 0.012. Further, in the data set on uterus weight in rats (setting [3]), the BMD (BMD10) was 0.0134 mg/kg, the “BMDL (BMDL10)” value is given as 0.002915 and the “BMDU (BMDU10)” value is listed as 0.03371. The “Predicted BMDL10 lower than that of BPA” value in data set [2] (YES assay-based prediction) was 4 orders of magnitude.

Take `CC(C)(c1ccc(O)cc1)c1ccc(O)cc1` [BPA, bisphenol A]: the free fraction (fraction unbound) at 5 h, 5 µM in data set [1] turned out to be 0.461 ± 0.035. Also, the “Fold difference in BMD10 values between the two in vivo studies” value in the data set on uterus weight in rats (Kanno et al. 2003 vs Tinwell and Ashby 2004) was 25.8 fold. In the data set on uterus weight in rats (setting [4]), the BMD (BMD10) was 207 mg/kg, the “BMDL (BMDL10)” value stood at 62.66 and the “BMDU (BMDU10)” value stood at 516.80. Also, in the data set on uterus weight in rats (setting [5]), the BMD (BMD10) amounted to 8.02 mg/kg, the “BMDL (BMDL10)” value came to 1.00 and the “BMDU (BMDU10)” value amounted to 37.13. Also, the “Predicted BMDL10 fold higher than BMDL10 of the in vivo data” value in data set [2] (in vivo data from Tinwell and Ashby (2004)) is 4.7 fold. Besides, the “Predicted BMDL10 fold lower than BMDL10 of the in vivo data” value in data set [2] (in vivo data of Kanno et al. (2003)) was 13.4 fold. The “Papp, Caco-2” value with Caco-2 (PBK model code, ref Yoshkawa et al. 2002) is listed as 20 x1E-6 cm/sec. Also, the “P app, Caco-2” value in the data set with Caco-2 (ref Yoshikawa et al. [2002]) was 20 ×10⁻⁶ cm/s.

As a reminder, the fraction unbound is free concentration divided by total concentration.
